Tests used:
[1] = target: T1, human melanocortin-4 receptor (MC-4R) (Homo sapiens, UniProt P32245); experiment: Membrane binding assay: competition with fluorescence labeled NDP-alpha-MSH, fluorescence polarization; conditions: HEK293 cell membrane preparations expressing human MC-4R, read-out: hMC-4R binding assay IC50
T1 construct: expressed in transfected cells; host or cells: HEK293

[2] = target: T1, human melanocortin-4 receptor (MC-4R); experiment: Functional assay: agonistic activity, cAMP production in membrane preparations compared with NDP-alpha-MSH, fluorescence polarization; format: biochemical; conditions: for Emax: cAMP produced compared to stimulation with NDP-alpha-MSH, read-out: % activation functional assay

T1 sequence (P32245 whole entry): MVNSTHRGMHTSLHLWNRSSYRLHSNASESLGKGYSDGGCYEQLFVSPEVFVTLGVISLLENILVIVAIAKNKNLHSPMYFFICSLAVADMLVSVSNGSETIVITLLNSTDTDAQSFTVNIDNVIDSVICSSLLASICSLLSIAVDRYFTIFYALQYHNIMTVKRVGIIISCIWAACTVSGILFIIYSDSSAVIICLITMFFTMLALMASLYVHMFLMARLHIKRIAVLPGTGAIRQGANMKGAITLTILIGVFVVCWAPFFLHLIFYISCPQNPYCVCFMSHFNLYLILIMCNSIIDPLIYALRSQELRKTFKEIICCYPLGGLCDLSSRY

SMILES	IC50 [1]	Emax [2]	EC50 ([2]; cAMP production, membrane preparations from HEK293 cells expressing human MC-4R, read-out: hMC-4R functional assay EC50)
CC[C@H](COc1cccnc1C1CCN(C(=O)[C@@H](Cc2ccc(Cl)cc2Cl)NC(=O)N2CCC[C@@H](O)C2)CC1)N(C)C [Example 113]	≤ 100 nM	-14%	
CC[C@H](COc1cccnc1C1CCN(C(=O)[C@@H](Cc2ccc(Cl)cc2Cl)NC(=O)N2CC[C@H](CO)C2)CC1)N(C)C [Example 114]	≤ 100 nM	-3%	
CC[C@H](COc1cccnc1C1CCN(C(=O)[C@@H](Cc2ccc(Cl)cc2Cl)NC(=O)N2CC[C@@H](CO)C2)CC1)N(C)C [Example 115]	≤ 100 nM	-8%	
CC[C@H](COc1cccnc1C1CCN(C(=O)[C@@H](Cc2ccc(Cl)cc2Cl)NC(=O)N2CC[C@@H](O)C2)CC1)N(C)C [Example 116]	≤ 100 nM	-1%	
CC[C@H](COc1cccnc1C1CCN(C(=O)[C@@H](Cc2ccc(Cl)cc2Cl)NC(=O)N2CC[C@H](OC(C)=O)C2)CC1)N(C)C [Example 117]	≤ 100 nM	0%	
C#CC1(O)CN(C(=O)N[C@H](Cc2ccc(Cl)cc2Cl)C(=O)N2CCC(c3ncccc3OC[C@@H](CC)N(C)C)CC2)C1 [Example 118]	≤ 100 nM	11%	
CC[C@H](COc1cccnc1C1CCN(C(=O)[C@@H](Cc2ccc(Cl)cc2Cl)NC(=O)N2CC[C@@H](OC(C)=O)C2)CC1)N(C)C [Example 120]	≤ 100 nM	5%	
CC[C@H](COc1cccnc1C1CCN(C(=O)[C@@H](Cc2ccc(Cl)cc2Cl)NC(=O)N2CCC[C@@H]2C(C)(C)O)CC1)N(C)C [Example 121]	≤ 100 nM	-6%	
CC[C@H](COc1cccnc1C1CCN(C(=O)[C@@H](Cc2ccc(Cl)cc2Cl)NC(=O)N2CC(O)(C(C)C)C2)CC1)N(C)C [Example 122]	≤ 100 nM	0%	
CC[C@H](COc1cccnc1C1CCN(C(=O)[C@@H](Cc2ccc(Cl)cc2Cl)NC(=O)N2CC(O)(C3CC3)C2)CC1)N(C)C [Example 123]	≤ 100 nM	3%	
CC[C@H](COc1cccnc1C1CCN(C(=O)[C@@H](Cc2ccc(Cl)cc2Cl)NC(=O)N2CCCC(C)(O)C2)CC1)N(C)C (some centres unmarked) [Example 125]	≤ 100 nM	-8%	
CC[C@H](COc1cccnc1C1CCN(C(=O)[C@@H](Cc2ccc(Cl)cc2Cl)NC(=O)N2CCC[C@H]2C(C)(C)O)CC1)N(C)C [Example 126]	≤ 100 nM	-8%	
CC[C@H](COc1cccnc1C1CCN(C(=O)[C@@H](Cc2ccc(Cl)cc2Cl)NC(=O)N2CC[C@H]2CO)CC1)N(C)C [Example 127]	≤ 100 nM	-3%	
CC[C@H](COc1cccnc1C1CCN(C(=O)[C@@H](Cc2ccc(Cl)cc2Cl)NC(=O)N2CCC(O)(C(F)(F)F)C2)CC1)N(C)C (some centres unmarked) [Example 128]	≤ 100 nM	-8%	
CC[C@H](COc1cccnc1C1CCN(C(=O)[C@@H](Cc2ccc(Cl)cc2Cl)NC(=O)N2CC(O)(C(F)(F)F)C2)CC1)N(C)C [Example 129]	≤ 100 nM	-5%	
CC[C@H](COc1cccnc1C1CCN(C(=O)[C@@H](Cc2ccc(Cl)cc2Cl)NC(=O)N2CCC(O)(CC3CC3)C2)CC1)N(C)C (some centres unmarked) [Example 130]	≤ 100 nM	-2%	
CC[C@H](COc1cccnc1C1CCN(C(=O)[C@@H](Cc2ccc(Cl)cc2Cl)NC(=O)N2CC[C@@H](N)C2)CC1)N(C)C [Example 131]	≤ 100 nM	-2%	
CC[C@H](COc1cccnc1C1CCN(C(=O)[C@@H](Cc2ccc(Cl)cc2Cl)NC(=O)N2CC[C@@H](N(C)C)C2)CC1)N(C)C [Example 132]	≤ 100 nM	-4%	
CC[C@H](COc1cccnc1C1CCN(C(=O)[C@@H](Cc2ccc(Cl)cc2Cl)NC(=O)N(C)C2COC2)CC1)N(C)C [Example 133]	≤ 100 nM	-6%	
CC[C@H](COc1cccnc1C1CCN(C(=O)[C@@H](Cc2ccc(Cl)cc2Cl)NC(=O)N(C)CC2(C)COC2)CC1)N(C)C [Example 134]	≤ 100 nM	-2%	
CC[C@@H](CN(C)C)Oc1cccnc1C1CCN(C(=O)[C@@H](Cc2ccc(Cl)cc2Cl)NC(=O)N(C)CC)CC1 [Example 135]	≤ 100 nM	3%	
CC[C@@H](CN(C)C)Oc1cccnc1C1CCN(C(=O)[C@@H](Cc2ccc(Cl)cc2Cl)NC(=O)N2CC(O)C2)CC1 [Example 136]	≤ 100 nM	10%	
CC[C@@H](CN(C)C)Oc1cccnc1C1CCN(C(=O)[C@@H](Cc2ccc(Cl)cc2Cl)NC(=O)N2CC[C@H](O)C2)CC1 [Example 137]	≤ 100 nM	8%	
CC[C@@H](CN(C)C)Oc1cccnc1C1CCN(C(=O)[C@@H](Cc2ccc(Cl)cc2Cl)NC(=O)N(C)CCOC)CC1 [Example 138]	≤ 100 nM	9%	
CC[C@@H](CN(C)C)Oc1cccnc1C1CCN(C(=O)[C@@H](Cc2ccc(Cl)cc2Cl)NC(=O)N2CC[C@@H](O)C2)CC1 [Example 139]	≤ 100 nM	-10%	
CN1CCC[C@H](Oc2cccnc2C2CCN(C(=O)[C@@H](Cc3ccc(Cl)cc3Cl)NC(=O)N3CC[C@H](O)C3)CC2)C1 [Example 141]	≤ 100 nM	-3%	
COCCN(C)C(=O)N[C@H](Cc1ccc(Cl)cc1Cl)C(=O)N1CCC(c2ncccc2O[C@H]2CCCN(C)C2)CC1 [Example 142]	≤ 100 nM	-32%	≤ 100 nM
CN1CCC[C@H](Oc2cccnc2C2CCN(C(=O)[C@@H](Cc3ccc(Cl)cc3Cl)NC(=O)N3CC[C@@H](O)C3)CC2)C1 [Example 143]	≤ 100 nM	-1%	
CN1CCN(Cc2cc(F)cnc2C2CCN(C(=O)[C@@H](Cc3ccc(Cl)cc3Cl)NC(=O)N3CC(O)C3)CC2)CC1 [Example 144]	≤ 100 nM	2%	

Reference: US20100249093A1, “Substituted Heteroarylpiperidine Derivatives As Melanocortin-4 Receptor Modulators” (SANTHERA PHARMACEUTICALS (SCHWEIZ) AG, priority 2007, published 2010)
